{
  "source": "patent US7691858B2",
  "about": "“Kinase inhibitors and methods of use thereof” (TargeGen, Inc., priority 2006, dated 2010)",
  "key": {"[1]": {"tested_on": "PAF-induced inflammatory edema", "experiment": "Rat hindpaw inflammation model, PAF", "format": "in vivo, Sprague Dawley rats", "description": "(§1) FIG. 4. Inhibition of edema and inflammation. (a, b) Rats were injected i.v. with Evans blue dye and then intradermally with saline, VEGF or histamine. […] (c-f) Rat hindpaws were injected with either PAF (c & d) or dextran (e & f), and three hours later processed as H&E-stained paraffin sections. […] Images were taken of paws representing the mean group value for volume as presented in Results (original magnification 200×).\n(§2) The Miles assay models a primarily endothelial-based response that develops rapidly (within minutes). As a comparator, we next employed a rodent hindpaw model where more complex inflammatory reactions develop over several hours. Agonists included PAF, a GPCR ligand that activates both EC and leukocytes, and dextran, a phagocytic stimulus for mast cell and leukocyte activation. […] Paw volume (a more quantitative measure of edema and inflammation) was reduced by 62% and 78% in response to PAF or dextran, respectively (n=8, P<0.001). Finally, to correlate these in vivo responses with the molecular target of interest, we monitored PI3K pathway signaling through Western blot analyses of Akt phosphorylation (a PI3K-mediated event).\n(§3) In order to determine the influence of compounds on the development of inflammation, Sprague Dawley rats were first injected intravenously with either vehicle or test compound at 5 mg/kg, and then 30 min later either PBS (as a control), dextran or platelet activating factor (PAF) was injected into the plantar surface of the hindlimbs, dextran and PAF being known to induce localized inflammatory responses marked by edema. Three hours later, paw dimensions were measured using a caliper and paw volumes calculated; data are shown as the increase in paw volume (mm^3) as compared to controls (paws injected with PBS)."}, "[2]": {"tested_on": "dextran-induced inflammatory edema", "experiment": "Rat hindpaw inflammation model, dextran", "format": "in vivo, Sprague Dawley rats", "description": "as §1, §2, §3"}, "[3]": {"tested_on": "myocardial infarct", "experiment": "Porcine MI model", "format": "in vivo, pig", "description": "PI3Kγ/δ inhibition limits infarct development in a porcine MI model. In a final series of studies, MIs were modeled in the pig, as this species better approximates human coronary anatomy and responses to myocardial I/R injury. With aggressive model parameters of a 90 min ischemic period, therapeutic dosing 30 min post-reperfusion and infarct measurement at 24 h, we typically observed ischemic zones representing 20-30% of the total LV and 20-30% infarction of this area in control animals. […] Measuring infarct area as percent of total LV ischemic area, infarct size was reduced by 35% (P=0.04). […] Finally, taking advantage of the larger porcine heart to make more detailed measurements, infarct areas within the LV free wall only (as opposed to the free plus attached wall measurements reported up to this point) were also determined, reasoning that free wall infarcts are of greatest relevance to overall myocardial function.\nPorcine MI model: All animal studies followed current “NIH Guidelines for the Use of Laboratory Animals” and were performed according to IACUC-approved protocols. Farm swine (Landrace-Duroc cross, 32-41 kg) were acclimated for 1-3 weeks prior to study group randomization. On the day of surgery, animals (fasted overnight) were first administered aspirin, clopridogrel and nifedipine (650, 300 and 300 mg p.o., respectively), followed by atropine sulfate and telazol (0.05 and 7 mg/kg i.m., respectively). Anesthesia was then induced with ketamine and xylazine (25 mg/kg each i.m.) followed by intubation and maintenance on inhaled isoflurane; body temperature was maintained at 35-37° C. using heating pads. For each animal, the ventral neck was shaved and scrubbed with iodine, an arterial sheath inserted into the carotid artery, and under fluoroscopic guidance a guide catheter advanced to the coronary artery ostium. Angiographic images were used to guide angioplasty balloon placement (below the first major LAD bifurcation). After advancing through the guide catheter to the proper location, the balloon was inflated at a steady rate to a pressure sufficient to ensure complete occlusion of the LAD (verified by fluoroscopy), and occlusion maintained for 90 min. Blood pressure was monitored throughout the surgical procedure and adjusted as needed, and ECG monitored for arrhythmias as well as to confirm LAD occlusion. Lactated Ringer's solution was maintained as an i.v. drip (via the auricular vein), and heparin given to maintain an activated clotting time of ˜300 seconds. […] At the end of the ischemic period, the balloon was deflated and removed, and the ischemic area allowed to reperfuse (again verified by fluoroscopy). Catheters were removed, the arterial access ligated, the surgical area closed in layers and buprenorphine (0.01 mg/kg i.m.) administered.\nOn Study Day 2 (24 hr post-LAD occlusion), a surgical plane of anesthesia was established with sodium pentobarbital, and the LAD exposed and occluded using a suture snare at the same level as previously. Evans blue dye (100 ml of 0.1% saline solution) was injected i.v. and allowed to circulate for 5 min prior to explanting the heart. Hearts were cut into approximately 1 cm short axis slices and TTC stained and photographed as described for the rodent MI model. […]"}, "[4]": {"target": "T1, Akt1 (Homo sapiens, UniProt P31749)", "T1 construct": "purchased Upstate USA or Invitrogen (commercial screening service)", "T1 sequence (P31749 whole entry)": "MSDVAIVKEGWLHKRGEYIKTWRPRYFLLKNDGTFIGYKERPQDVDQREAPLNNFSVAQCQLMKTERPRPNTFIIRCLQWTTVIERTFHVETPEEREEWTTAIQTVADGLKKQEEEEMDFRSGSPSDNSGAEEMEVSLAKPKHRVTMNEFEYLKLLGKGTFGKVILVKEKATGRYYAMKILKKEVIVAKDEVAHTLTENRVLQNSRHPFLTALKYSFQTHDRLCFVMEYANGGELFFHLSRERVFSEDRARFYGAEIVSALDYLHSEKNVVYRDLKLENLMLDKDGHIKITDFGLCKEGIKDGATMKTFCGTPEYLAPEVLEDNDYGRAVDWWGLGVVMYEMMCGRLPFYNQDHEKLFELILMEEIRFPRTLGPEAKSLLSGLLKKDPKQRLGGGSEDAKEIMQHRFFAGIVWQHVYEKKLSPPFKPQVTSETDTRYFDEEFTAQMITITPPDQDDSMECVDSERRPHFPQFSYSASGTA", "experiment": "Kinase panel screen", "format": "biochemical", "conditions": "Compound I at 1 μM and ATP at the apparent Km"}, "[5]": {"target": "T2, Aurora-A (Homo sapiens, UniProt O14965)", "T2 construct": "purchased Upstate USA or Invitrogen (contract screening service)", "T2 sequence (O14965 whole entry)": "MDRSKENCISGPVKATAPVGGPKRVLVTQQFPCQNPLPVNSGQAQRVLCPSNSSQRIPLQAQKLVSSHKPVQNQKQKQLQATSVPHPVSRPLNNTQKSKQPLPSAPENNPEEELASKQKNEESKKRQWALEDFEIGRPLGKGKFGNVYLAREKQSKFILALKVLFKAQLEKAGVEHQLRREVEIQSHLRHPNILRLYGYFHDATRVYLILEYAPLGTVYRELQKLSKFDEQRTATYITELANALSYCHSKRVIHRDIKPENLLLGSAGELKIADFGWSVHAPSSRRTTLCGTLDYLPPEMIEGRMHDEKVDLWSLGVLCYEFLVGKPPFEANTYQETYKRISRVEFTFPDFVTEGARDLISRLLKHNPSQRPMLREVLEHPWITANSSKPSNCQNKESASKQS", "experiment": "Kinase panel screen", "format": "biochemical", "conditions": "Compound I and ATP 10 μM"}, "[6]": {"target": "T3, FGFR4 (Homo sapiens, UniProt P22455)", "T3 construct": "purchased Upstate USA or Invitrogen (contract screening service)", "T3 sequence (P22455 22-802)": "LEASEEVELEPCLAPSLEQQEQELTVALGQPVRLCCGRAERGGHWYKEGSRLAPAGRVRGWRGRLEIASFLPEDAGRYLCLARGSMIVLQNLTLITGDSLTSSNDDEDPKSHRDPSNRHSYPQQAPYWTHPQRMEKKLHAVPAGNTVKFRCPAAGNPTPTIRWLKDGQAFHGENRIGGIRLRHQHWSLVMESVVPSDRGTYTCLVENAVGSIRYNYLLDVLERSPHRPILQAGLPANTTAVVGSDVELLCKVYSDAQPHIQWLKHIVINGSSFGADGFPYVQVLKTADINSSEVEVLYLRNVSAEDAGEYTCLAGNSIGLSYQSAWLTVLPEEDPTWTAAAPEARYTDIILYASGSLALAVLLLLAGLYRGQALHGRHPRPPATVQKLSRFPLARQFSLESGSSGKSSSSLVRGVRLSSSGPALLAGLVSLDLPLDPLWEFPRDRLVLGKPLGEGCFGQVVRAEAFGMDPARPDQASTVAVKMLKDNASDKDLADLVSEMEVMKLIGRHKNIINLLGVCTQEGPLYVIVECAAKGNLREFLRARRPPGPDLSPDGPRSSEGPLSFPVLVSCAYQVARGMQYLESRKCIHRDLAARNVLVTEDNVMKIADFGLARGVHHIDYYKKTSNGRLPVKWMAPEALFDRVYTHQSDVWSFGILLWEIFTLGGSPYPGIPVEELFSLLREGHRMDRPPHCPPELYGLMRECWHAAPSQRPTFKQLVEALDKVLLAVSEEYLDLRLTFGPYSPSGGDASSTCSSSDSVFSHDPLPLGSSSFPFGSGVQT", "experiment": "Kinase panel screen", "format": "biochemical", "conditions": "Compound I and ATP 10 μM"}, "[7]": {"target": "T4, ROCK-I (Homo sapiens, UniProt Q13464)", "T4 construct": "purchased Upstate USA or Invitrogen (commercial screening service)", "T4 sequence (Q13464 whole entry)": "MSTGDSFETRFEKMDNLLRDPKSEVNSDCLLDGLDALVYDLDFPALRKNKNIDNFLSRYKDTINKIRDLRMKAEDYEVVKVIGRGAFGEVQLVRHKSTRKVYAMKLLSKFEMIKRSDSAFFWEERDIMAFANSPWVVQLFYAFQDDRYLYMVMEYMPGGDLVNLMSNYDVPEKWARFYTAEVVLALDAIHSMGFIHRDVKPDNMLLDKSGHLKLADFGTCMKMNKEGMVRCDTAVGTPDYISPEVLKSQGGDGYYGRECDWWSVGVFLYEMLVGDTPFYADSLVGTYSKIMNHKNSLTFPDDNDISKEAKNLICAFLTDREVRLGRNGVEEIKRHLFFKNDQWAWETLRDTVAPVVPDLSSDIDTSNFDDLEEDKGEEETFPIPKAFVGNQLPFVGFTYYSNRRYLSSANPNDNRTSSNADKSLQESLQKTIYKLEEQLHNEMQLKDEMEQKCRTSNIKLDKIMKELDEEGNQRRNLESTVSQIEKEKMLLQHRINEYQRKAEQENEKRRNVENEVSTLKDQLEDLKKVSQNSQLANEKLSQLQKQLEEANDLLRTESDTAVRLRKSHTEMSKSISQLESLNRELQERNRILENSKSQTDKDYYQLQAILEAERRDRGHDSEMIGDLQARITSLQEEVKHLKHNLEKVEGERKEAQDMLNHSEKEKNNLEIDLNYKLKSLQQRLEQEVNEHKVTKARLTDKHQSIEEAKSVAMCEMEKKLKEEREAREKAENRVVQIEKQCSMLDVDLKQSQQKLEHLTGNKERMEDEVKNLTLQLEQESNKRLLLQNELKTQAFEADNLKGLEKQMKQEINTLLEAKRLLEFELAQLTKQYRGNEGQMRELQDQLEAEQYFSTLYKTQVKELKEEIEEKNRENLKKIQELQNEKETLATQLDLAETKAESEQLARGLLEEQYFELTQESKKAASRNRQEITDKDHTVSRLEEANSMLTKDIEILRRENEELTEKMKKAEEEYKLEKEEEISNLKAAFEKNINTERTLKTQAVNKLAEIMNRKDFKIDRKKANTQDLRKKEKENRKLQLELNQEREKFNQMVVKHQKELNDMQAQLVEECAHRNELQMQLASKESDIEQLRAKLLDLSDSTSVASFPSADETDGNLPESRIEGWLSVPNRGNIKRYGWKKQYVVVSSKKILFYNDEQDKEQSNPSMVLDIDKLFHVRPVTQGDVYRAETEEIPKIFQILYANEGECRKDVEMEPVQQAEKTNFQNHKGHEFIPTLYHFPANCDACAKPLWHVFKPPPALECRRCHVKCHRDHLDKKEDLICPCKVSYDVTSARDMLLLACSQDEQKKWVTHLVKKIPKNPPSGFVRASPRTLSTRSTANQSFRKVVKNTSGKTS", "experiment": "Kinase panel screen", "format": "biochemical", "conditions": "Compound I and ATP 10 μM"}, "[8]": {"target": "T5, Fyn (Homo sapiens, UniProt P06241)", "T5 construct": "purchased Upstate USA or Invitrogen (commercial screening service)", "T5 sequence (P06241 whole entry)": "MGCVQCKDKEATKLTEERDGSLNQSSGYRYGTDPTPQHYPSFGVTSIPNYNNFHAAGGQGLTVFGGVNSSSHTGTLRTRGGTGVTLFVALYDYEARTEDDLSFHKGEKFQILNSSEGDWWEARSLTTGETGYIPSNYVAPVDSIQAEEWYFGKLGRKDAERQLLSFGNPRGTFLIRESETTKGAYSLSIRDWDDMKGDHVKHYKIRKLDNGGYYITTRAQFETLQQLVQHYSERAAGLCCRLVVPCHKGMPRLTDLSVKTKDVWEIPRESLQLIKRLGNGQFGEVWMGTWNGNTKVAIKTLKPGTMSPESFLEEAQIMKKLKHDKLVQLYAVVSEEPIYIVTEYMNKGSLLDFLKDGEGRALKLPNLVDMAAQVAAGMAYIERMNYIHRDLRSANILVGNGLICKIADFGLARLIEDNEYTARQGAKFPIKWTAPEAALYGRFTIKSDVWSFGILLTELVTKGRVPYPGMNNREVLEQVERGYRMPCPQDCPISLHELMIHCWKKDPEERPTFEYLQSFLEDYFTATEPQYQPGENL", "experiment": "Kinase panel screen", "format": "biochemical", "conditions": "Compound I and ATP 10 μM"}, "[9]": {"target": "T6, SAPK2b (Homo sapiens, UniProt Q15759)", "T6 construct": "purchased Upstate USA or Invitrogen (commercial screening service)", "T6 sequence (Q15759 whole entry)": "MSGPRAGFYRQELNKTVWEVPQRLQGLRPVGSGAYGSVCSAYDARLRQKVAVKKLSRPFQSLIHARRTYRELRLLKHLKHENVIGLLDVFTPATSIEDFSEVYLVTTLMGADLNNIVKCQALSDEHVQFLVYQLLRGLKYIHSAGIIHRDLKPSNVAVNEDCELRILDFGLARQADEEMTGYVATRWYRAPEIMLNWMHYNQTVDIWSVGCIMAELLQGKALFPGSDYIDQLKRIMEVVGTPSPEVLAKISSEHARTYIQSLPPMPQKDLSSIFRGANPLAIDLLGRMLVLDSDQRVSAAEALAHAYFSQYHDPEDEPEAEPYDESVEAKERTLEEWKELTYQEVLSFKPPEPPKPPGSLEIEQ", "experiment": "Kinase panel screen", "format": "biochemical", "conditions": "Compound I and ATP 10 μM"}, "[10]": {"target": "T7, Pim-1 (Homo sapiens, UniProt P11309)", "T7 construct": "purchased Upstate USA or Invitrogen (contract screening service)", "T7 sequence (P11309 whole entry)": "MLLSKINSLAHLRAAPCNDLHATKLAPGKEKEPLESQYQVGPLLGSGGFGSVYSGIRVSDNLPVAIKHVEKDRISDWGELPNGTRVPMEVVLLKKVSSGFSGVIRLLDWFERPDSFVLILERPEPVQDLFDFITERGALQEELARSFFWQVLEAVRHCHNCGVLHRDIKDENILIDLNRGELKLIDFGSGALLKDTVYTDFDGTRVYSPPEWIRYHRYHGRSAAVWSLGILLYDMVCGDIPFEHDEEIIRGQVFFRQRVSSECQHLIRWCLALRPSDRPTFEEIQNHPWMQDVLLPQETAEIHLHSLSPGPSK", "experiment": "Kinase panel screen", "format": "biochemical", "conditions": "Compound I and ATP 10 μM"}, "[11]": {"target": "T8, Syk (Homo sapiens, UniProt P43405)", "T8 construct": "purchased Upstate USA or Invitrogen (contract screening service)", "experiment": "Kinase panel screen", "format": "biochemical", "conditions": "Compound I and ATP 10 μM"}, "[12]": {"target": "T9, PKCa (Homo sapiens, UniProt P17252)", "T9 construct": "purchased Upstate USA or Invitrogen (contract screening service)", "experiment": "Kinase panel screen", "format": "biochemical", "conditions": "Compound I and ATP 10 μM"}, "[13]": {"target": "T10, MAPK1 (Homo sapiens, UniProt P27361)", "T10 construct": "purchased Upstate USA or Invitrogen (commercial screening service)", "experiment": "Kinase panel screen", "format": "biochemical", "conditions": "Compound I and ATP 10 μM"}, "[14]": {"conditions": "single 0.5 mg/kg i.v. bolus 30 min post-reperfusion, 24 h"}},
  "note": "Entries after “also recorded” stand apart in the source; their conditions may differ.",
  "data": [
    {"smiles": "Nc1nc(N)c2nc(-c3cccc(O)c3)c(-c3cccc(O)c3)nc2n1", "note": "[Compound I, 6,7-bis-(3-hydroxyphenyl)-pteridine-2,4-diamine]", "values": [
      {"measurement": "Increase in Paw Volume vs. Controls", "setting": "[1]; 5 mg/kg iv 30 min before, 3 hours, mean±SEM N=6, vehicle 71 ± 9", "value": "27 ± 4", "unit": "mm^3"},
      {"measurement": "edema and leukocyte infiltration (histology)", "setting": "[1]; 5 mg/kg pretreatment, three hours", "value": "strongly antagonized; also recorded: blocked"},
      {"measurement": "reduction of paw volume", "setting": "[1]; n=8", "value": 62, "unit": "%"},
      {"measurement": "Increase in Paw Volume vs. Controls", "setting": "[2]; Dextran, 5 mg/kg iv 30 min before, 3 hours, mean±SEM N=6, vehicle 148 ± 6", "value": "32 ± 5", "unit": "mm^3"},
      {"measurement": "edema and leukocyte infiltration (histology)", "setting": "[2]; dextran, 5 mg/kg pretreatment, three hours", "value": "strongly antagonized; also recorded: blocked"},
      {"measurement": "reduction of paw volume", "setting": "[2]; dextran, n=8", "value": 78, "unit": "%"},
      {"measurement": "reduction of infarct size vs. controls", "setting": "[3]; single 0.3 mg/kg IV bolus 30 min post-reperfusion, N=12-13", "value": 32, "unit": "%"},
      {"measurement": "infarct size", "setting": "[3]; single 0.3 mg/kg IV bolus 30 min post-reperfusion, controls 56%", "value": 40, "unit": "%"},
      {"measurement": "increase in viable tissue within the ischemic zone", "setting": "[3]; [14]", "value": 37, "unit": "%"},
      {"measurement": "reduction of free wall infarct size vs. vehicle-treated controls", "setting": "[3]; [14]", "value": 38, "unit": "%"},
      {"measurement": "reduction of infarct size (infarct area as percent of total LV ischemic area)", "setting": "[3]; [14]", "value": 35, "unit": "%"},
      {"measurement": "Percent Control, Akt1*", "setting": "[4]", "value": 96, "unit": "%"},
      {"measurement": "Percent Control, Aurora-A", "setting": "[5]", "value": 71, "unit": "%"},
      {"measurement": "Percent Control, FGFR4", "setting": "[6]", "value": 94, "unit": "%"},
      {"measurement": "Percent Control, ROCK-I", "setting": "[7]", "value": 93, "unit": "%"},
      {"measurement": "Percent Control, Fyn", "setting": "[8]", "value": 54, "unit": "%"},
      {"measurement": "Percent Control, SAPK2b", "setting": "[9]", "value": 87, "unit": "%"},
      {"measurement": "Percent Control, Pim-1", "setting": "[10]", "value": 70, "unit": "%"},
      {"measurement": "Percent Control, Syk", "setting": "[11]", "value": 76, "unit": "%"},
      {"measurement": "Percent Control, PKCa", "setting": "[12]", "value": 90, "unit": "%"},
      {"measurement": "Percent Control, MAPK1", "setting": "[13]", "value": 97, "unit": "%"}
    ]}
  ]
}
